# According to ChEMBL document CHEMBL1142498 (J Med Chem, 2008):
# Experiments:
# [1] = biological target: Sodium-dependent serotonin transporter (Homo sapiens, UniProt P31645); format: cell-based, JAR
# Description: Inhibition of 5-HT transporter-mediated [3H]5HT uptake in human Jar cells
# Rattus norvegicus = species on record: Rattus norvegicus; test: Displacement of [3H]prazosin from alpha1 adrenergic receptor in Sprague-Dawley rat cortical membrane at 1 uM
# [2] = biological target: T1, 5-hydroxytryptamine receptor 1A (Homo sapiens) (UniProt P08908); test: Displacement of [3H]8-OH-DPAT from human recombinant 5HT1A receptor expressed in CHO cells at 1uM; format: cell-based
# T1 sequence (whole entry): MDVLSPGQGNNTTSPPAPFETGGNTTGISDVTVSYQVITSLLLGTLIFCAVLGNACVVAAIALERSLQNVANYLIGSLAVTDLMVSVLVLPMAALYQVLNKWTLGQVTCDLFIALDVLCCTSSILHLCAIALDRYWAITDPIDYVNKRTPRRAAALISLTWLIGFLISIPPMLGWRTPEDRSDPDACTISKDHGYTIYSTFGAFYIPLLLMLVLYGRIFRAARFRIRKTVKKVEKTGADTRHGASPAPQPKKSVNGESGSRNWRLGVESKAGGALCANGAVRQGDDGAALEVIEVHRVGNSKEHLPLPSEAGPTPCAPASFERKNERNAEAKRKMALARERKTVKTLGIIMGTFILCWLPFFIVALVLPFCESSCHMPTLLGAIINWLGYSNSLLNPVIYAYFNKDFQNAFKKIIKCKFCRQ
# [3] = biological target: T2, 5-hydroxytryptamine receptor 1A (Homo sapiens, UniProt P08908)
# T2 sequence (P08908 whole entry): T1 sequence (whole entry)
# Description: Activity at human cloned 5HT1A receptor expressed in CHO cells assessed as blockade of 5-HT-stimulated [35S]GTPgammaS binding
# [4] = biological target: Sodium-dependent serotonin transporter (Rattus norvegicus, UniProt P31652)
# Description: Displacement of [3H]paroxetine from serotonin transporter in Sprague-Dawley rat frontal cortical membrane
# [5] = biological target: T2, 5-hydroxytryptamine receptor 1A; test: biochemical
# Sequence of Sodium-dependent serotonin transporter (Rattus norvegicus, UniProt P31652) (P31652 whole entry): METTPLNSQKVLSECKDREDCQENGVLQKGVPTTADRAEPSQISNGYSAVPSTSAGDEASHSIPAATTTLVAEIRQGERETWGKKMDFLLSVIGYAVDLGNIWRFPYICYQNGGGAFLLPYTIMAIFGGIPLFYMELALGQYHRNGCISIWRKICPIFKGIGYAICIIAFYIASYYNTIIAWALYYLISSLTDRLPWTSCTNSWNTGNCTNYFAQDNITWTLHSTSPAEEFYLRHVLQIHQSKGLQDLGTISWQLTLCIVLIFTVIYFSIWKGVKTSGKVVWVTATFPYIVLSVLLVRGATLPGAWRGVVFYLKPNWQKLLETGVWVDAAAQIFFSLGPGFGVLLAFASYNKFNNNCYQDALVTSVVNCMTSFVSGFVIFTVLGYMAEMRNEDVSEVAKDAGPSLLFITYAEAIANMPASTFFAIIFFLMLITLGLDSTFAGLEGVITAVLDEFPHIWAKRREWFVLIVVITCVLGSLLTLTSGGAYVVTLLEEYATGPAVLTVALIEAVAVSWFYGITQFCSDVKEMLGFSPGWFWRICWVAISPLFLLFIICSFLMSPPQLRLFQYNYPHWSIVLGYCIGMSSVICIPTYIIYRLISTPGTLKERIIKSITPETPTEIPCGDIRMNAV
# Sequence of Sodium-dependent serotonin transporter (Homo sapiens, UniProt P31645) (P31645 whole entry): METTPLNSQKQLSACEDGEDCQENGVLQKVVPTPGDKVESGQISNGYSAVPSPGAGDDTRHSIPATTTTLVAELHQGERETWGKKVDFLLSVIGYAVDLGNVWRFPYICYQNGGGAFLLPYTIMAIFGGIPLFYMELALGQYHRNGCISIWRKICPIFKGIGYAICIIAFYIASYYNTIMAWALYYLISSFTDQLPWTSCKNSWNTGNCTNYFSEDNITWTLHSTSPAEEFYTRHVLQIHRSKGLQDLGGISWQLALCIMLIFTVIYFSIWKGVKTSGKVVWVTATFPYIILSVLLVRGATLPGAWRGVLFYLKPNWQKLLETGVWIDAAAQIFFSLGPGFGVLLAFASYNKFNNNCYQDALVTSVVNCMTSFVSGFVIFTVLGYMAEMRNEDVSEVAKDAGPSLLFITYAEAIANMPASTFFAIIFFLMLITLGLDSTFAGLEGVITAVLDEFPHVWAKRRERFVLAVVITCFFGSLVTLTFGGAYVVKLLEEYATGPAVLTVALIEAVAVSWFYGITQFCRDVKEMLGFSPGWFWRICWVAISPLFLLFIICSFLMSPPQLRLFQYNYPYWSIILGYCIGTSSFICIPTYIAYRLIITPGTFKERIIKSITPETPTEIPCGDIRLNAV
structure (smiles),measurement,setting,value
O=C(O)c1ccc(F)c2c1CC(N(CCCc1c[nH]c3ccc(F)cc13)C1CCC1)CO2 (configuration not stated),IC50,[1],1.03 µM
same,Activity,Rattus norvegicus,8%
same,Activity,[2],4%
same,IC50,[3],> 2 µM
"N#Cc1ccc2[nH]cc(CCCN(C3CCC3)C3COc4c(F)ccc(C(N)=O)c4C3)c2c1 (single isomer, unassigned; (-))",IC50,[1],0.0241 µM
same,Ki,[4],0.00244 µM
same,IC50,[3],0.195 µM
same,Ki,[5],0.00198 µM
"N#Cc1ccc2[nH]cc(CCCN(C3CCC3)C3COc4c(F)ccc(C(N)=O)c4C3)c2c1 (single isomer, unassigned; (+))",IC50,[1],0.0101 µM
same,Ki,[4],0.00905 µM
same,IC50,[3],1 µM
same,Ki,[5],0.258 µM
CCCN(CCCc1c[nH]c2ccc(F)cc12)[C@H]1COc2cccc(C(N)=O)c2C1,IC50,[1],0.146 µM
same,Activity,Rattus norvegicus,31%
same,Ki,[4],0.0234 µM
same,Ki,[5],0.00093 µM
O=C(NC1CCCCC1)c1ccc(F)c2c1CC(N(CCCc1c[nH]c3ccc(F)cc13)C1CCC1)CO2 (configuration not stated),IC50,[1],0.144 µM
same,Activity,Rattus norvegicus,21%
same,Activity,[2],44%
same,IC50,[3],> 1 µM
CCCN(CCCc1c[nH]c2ccc(F)cc12)C1COc2c(F)ccc(OC)c2C1 (configuration not stated),IC50,[1],0.442 µM
same,Ki,[4],0.0125 µM
same,Ki,[5],0.0194 µM
CCCN(CCCc1c[nH]c2ccc(F)cc12)[C@H]1COc2c(F)ccc(C(=O)NC)c2C1,IC50,[1],0.047 µM
same,Activity,Rattus norvegicus,39%
same,Ki,[4],0.0113 µM
same,IC50,[3],0.752 µM
same,Ki,[5],0.00264 µM
CNC(=O)c1ccc(F)c2c1C[C@@H](N(CCCc1c[nH]c3ccc(F)cc13)C1CCC1)CO2,IC50,[1],0.147 µM
same,Activity,Rattus norvegicus,0%
same,Ki,[4],0.0102 µM
same,IC50,[3],0.262 µM
same,Ki,[5],0.00132 µM
"NC(=O)c1ccc(Cl)c2c1CC(N(CCCc1c[nH]c3ccc(F)cc13)C1CCC1)CO2 (single isomer, unassigned; (-))",IC50,[1],0.0614 µM
same,Ki,[4],0.00198 µM
same,IC50,[3],0.125 µM
same,Ki,[5],0.0109 µM
